{
  "source": "patent US10689377B2",
  "about": "(Mirati Therapeutics, Inc., priority 2017, dated 2020)",
  "data": [
    {"molecular_target": "KRas G12C (Homo sapiens, UniProt P01116, G12C)", "sequence (P01116 1-188 isoform P01116-2 G12C)": "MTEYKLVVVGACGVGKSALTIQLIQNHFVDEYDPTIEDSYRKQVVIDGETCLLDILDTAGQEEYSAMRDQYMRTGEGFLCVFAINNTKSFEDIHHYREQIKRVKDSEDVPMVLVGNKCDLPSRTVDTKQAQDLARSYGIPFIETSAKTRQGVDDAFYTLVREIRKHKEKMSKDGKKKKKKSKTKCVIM", "experiment": "Cellular inhibition of KRas G12C measured by Phospho-ERK in NCI-H358 cells", "format": "cell-based", "details": "pERK(Thr202/Tyr204) normalized with GAPDH, NCI-H358 cells, 3 hours; read-out: IC50", "how_it_was_run": "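Ratio of phospho-ERK(Thr202/Tyr204) to GAPDH, read by near-infrared secondary antibodies on fixed, permeabilised NCI-H358 cells, expressed relative to DMSO control. Compound exposure was 3 h at 0.5% DMSO. IC50 values come from 4-parameter curve fits.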", "units": {"IC50": "nM"}, "values": [
      {"smiles": "C=CC(=O)N1CCN(c2nc(OC[C@@H]3CCCN3C)nc3c2CCN(c2cccc4cc(F)ccc24)C3)CC1CC#N", "note": "(stereo partly drawn) [Example 290, 2-[4-[7-(6-fluoro-1-naphthyl)-2-[[(2S)-1-methylpyrrolidin-2-yl]methoxy]-6,8-dihydro-5H-pyrido[3,4-d]pyrimidin-4-yl]-1-prop-2-enoyl-piperazin-2-yl]acetonitrile]", "IC50": "0.1 to 1000"},
      {"smiles": "C=CC(=O)N1CCN(c2nc(OC[C@@H]3CCCN3C)nc3c2CCN(c2cncc4ccccc24)C3)CC1CC#N", "note": "(stereo partly drawn) [Example 291, 2-[4-[7-(4-isoquinolyl)-2-[[(2S)-1-methylpyrrolidin-2-yl]methoxy]-6,8-dihydro-5H-pyrido[3,4-d]pyrimidin-4-yl]-1-prop-2-enoyl-piperazin-2-yl]acetonitrile]", "IC50": "0.1 to 1000"},
      {"smiles": "C=CC(=O)N1CCN(c2nc(OC[C@@H]3CCCN3C)nc3c2CCN(c2cccc4cnccc24)C3)CC1CC#N", "note": "(stereo partly drawn) [Example 292, 2-[4-[7-(5-isoquinolyl)-2-[[(2S)-1-methylpyrrolidin-2-yl]methoxy]-6,8-dihydro-5H-pyrido[3,4-d]pyrimidin-4-yl]-1-prop-2-enoyl-piperazin-2-yl]acetonitrile]", "IC50": "> 1000"},
      {"smiles": "C/C=C/C(=O)N1CCN(c2nc(OC[C@@H]3CCCN3C)nc3c2CCN(c2cccc4ccccc24)C3)CC1CC#N", "note": "(stereo partly drawn) [Example 293, 2-[1-[(E)-but-2-enoyl]-4-[2-[[(2S)-1-methylpyrrolidin-2-yl]methoxy]-7-(1-naphthyl)-6,8-dihydro-5H-pyrido[3,4-d]pyrimidin-4-yl]piperazin-2-yl]acetonitrile]", "IC50": "0.1 to 1000"},
      {"smiles": "C=CC(=O)N1CCN(c2nc(OC[C@@H]3CCCN3C)nc3c2CCN(c2cccc4ncccc24)C3)CC1CC#N", "note": "(stereo partly drawn) [Example 294, 2-[4-[2-[[(2S)-1-methylpyrrolidin-2-yl]methoxy]-7-(5-quinolyl)-6,8-dihydro-5H-pyrido[3,4-d]pyrimidin-4-yl]-1-prop-2-enoyl-piperazin-2-yl]acetonitrile]", "IC50": "> 1000"},
      {"smiles": "C=CC(=O)N1CCN(c2nc(OC[C@@H]3CCCN3C)nc3c2CCN(c2ccnc4ccccc24)C3)CC1CC#N", "note": "(stereo partly drawn) [Example 295, 2-[4-[2-[[(2S)-1-methylpyrrolidin-2-yl]methoxy]-7-(4-quinolyl)-6,8-dihydro-5H-pyrido[3,4-d]pyrimidin-4-yl]-1-prop-2-enoyl-piperazin-2-yl]acetonitrile]", "IC50": "> 1000"},
      {"smiles": "C=CC(=O)N1CCN(c2nc(OCCN(C)C)nc3c2CCN(c2ccccc2C(F)(F)F)C3)CC1CC#N", "note": "(stereo not shown) [Example 296, 2-[4-[2-[2-(dimethylamino)ethoxy]-7-[2-(trifluoromethyl)phenyl]-6,8-dihydro-5H-pyrido[3,4-d]pyrimidin-4-yl]-1-prop-2-enoyl-piperazin-2-yl]acetonitrile]", "IC50": "0.1 to 1000"},
      {"smiles": "C=CC(=O)N1CCN(c2nc(OCCCN3C[C@H]4C[C@@H]3CO4)nc3c2CCN(c2ccccc2C(F)(F)F)C3)CC1CC#N", "note": "(stereo partly drawn) [Example 297, 2-[4-[2-[3-[(1R,4R)-2-oxa-5-azabicyclo[2.2.1]heptan-5-yl]propoxy]-7-[2-(trifluoromethyl)phenyl]-6,8-dihydro-5H-pyrido[3,4-d]pyrimidin-4-yl]-1-prop-2-enoyl-piperazin-2-yl]acetonitrile]", "IC50": "0.1 to 1000"},
      {"smiles": "C=CC(=O)N1CCN(c2nc(OC[C@@H]3CCN(C)C3)nc3c2CCN(c2ccccc2C(F)(F)F)C3)CC1CC#N", "note": "(stereo partly drawn) [Example 298, 2-(1-acryloyl-4-(2-(((R)-1-methylpyrrolidin-3-yl)methoxy)-7-(2-(trifluoromethyl)phenyl)-5,6,7,8-tetrahydropyrido[3,4-d]pyrimidin-4-yl)piperazin-2-yl)acetonitrile]", "IC50": "0.1 to 1000"},
      {"smiles": "C=CC(=O)N1CCN(c2nc(OC[C@H]3CCCN3C)nc3c2CCN(c2ccccc2C(F)(F)F)C3)CC1CC#N", "note": "(stereo partly drawn) [Example 299, 2-[4-[2-[[(2R)-1-methylpyrrolidin-2-yl]methoxy]-7-[2-(trifluoromethyl)phenyl]-6,8-dihydro-5H-pyrido[3,4-d]pyrimidin-4-yl]-1-prop-2-enoyl-piperazin-2-yl]acetonitrile]", "IC50": "0.1 to 1000"},
      {"smiles": "C=CC(=O)N1CCN(c2nc(OCCN(CC)CC)nc3c2CCN(c2ccccc2C(F)(F)F)C3)CC1CC#N", "note": "(stereo not shown) [Example 300, 2-[4-[2-[2-(diethylamino)ethoxy]-7-[2-(trifluoromethyl)phenyl]-6,8-dihydro-5H-pyrido[3,4-d]pyrimidin-4-yl]-1-prop-2-enoyl-piperazin-2-yl]acetonitrile]", "IC50": "0.1 to 1000"},
      {"smiles": "C=CC(=O)N1CCN(c2nc(OC[C@@H]3CCC(C)(C)N3C)nc3c2CCN(c2cccc4ccccc24)C3)CC1CC#N", "note": "(stereo partly drawn) [Example 301, 2-[4-[7-(1-naphthyl)-2-[[(2S)-1,5,5-trimethylpyrrolidin-2-yl]methoxy]-6,8-dihydro-5H-pyrido[3,4-d]pyrimidin-4-yl]-1-prop-2-enoyl-piperazin-2-yl]acetonitrile]", "IC50": "0.1 to 1000"},
      {"smiles": "C=CC(=O)N1CCN(c2nc(OC[C@@H]3CCCN3C)nc3c2CCN(c2cccc4ccc(F)cc24)C3)CC1CC#N", "note": "(stereo partly shown) [Example 302]", "IC50": "0.1 to 1000"},
      {"smiles": "C=CC(=O)N1CCN(c2nc(OCCN3CCCCC3)nc3c2CCN(c2cccc4ccccc24)C3)CC1CC#N", "note": "(stereo not shown) [Example 303, 2-[4-[7-(1-naphthyl)-2-[2-(1-piperidyl)ethoxy]-6,8-dihydro-5H-pyrido[3,4-d]pyrimidin-4-yl]-1-prop-2-enoyl-piperazin-2-yl]acetonitrile]", "IC50": "0.1 to 1000"},
      {"smiles": "C=CC(=O)N1CCN(c2nc(OC[C@H]3CCCN3CCO)nc3c2CCN(c2cccc4ccccc24)C3)CC1CC#N", "note": "(stereo partly drawn) [Example 304, 2-[4-[2-[[(2R)-1-(2-hydroxyethyl)pyrrolidin-2-yl]methoxy]-7-(1-naphthyl)-6,8-dihydro-5H-pyrido[3,4-d]pyrimidin-4-yl]-1-prop-2-enoyl-piperazin-2-yl]acetonitrile]", "IC50": "0.1 to 1000"},
      {"smiles": "C=CC(=O)N1CCN(c2nc(OC[C@@H]3CCCN3C)nc3c2CCN(c2cnccc2C#N)C3)C[C@@H]1CC#N", "note": "[Example 305, 3-(4-((S)-4-acryloyl-3-(cyanomethyl)piperazin-1-yl)-2-(((S)-1-methylpyrrolidin-2-yl)methoxy)-5,6-dihydropyrido[3,4-d]pyrimidin-7(8H)-yl)isonicotinonitrile]", "IC50": "> 1000"},
      {"smiles": "C=CC(=O)N1CCN(c2nc(OC[C@@H]3C[C@@H](F)CN3C)nc3c2CCN(c2cccc4ccccc24)C3)C[C@@H]1CC#N", "note": "[Example 306, 2-((S)-1-acryloyl-4-(2-(((2S,4R)-4-fluoro-1-methylpyrrolidin-2-yl)methoxy)-7-(naphthalen-1-yl)-5,6,7,8-tetrahydropyrido[3,4-d]pyrimidin-4-yl)piperazin-2-yl)acetonitrile]", "IC50": "0.1 to 1000"},
      {"smiles": "C=CC(=O)N1CCN(c2nc(OC[C@@H]3CCCN3C)nc3c2CCN(c2cccc(OC)c2F)C3)CC1CC#N", "note": "(stereo partly drawn) [Example 307, 2-[4-[7-(2-fluoro-3-methoxy-phenyl)-2-[[(2S)-1-methylpyrrolidin-2-yl]methoxy]-6,8-dihydro-5H-pyrido[3,4-d]pyrimidin-4-yl]-1-prop-2-enoyl-piperazin-2-yl]acetonitrile]", "IC50": "> 1000"},
      {"smiles": "C=CC(=O)N1CCN(c2nc(OC[C@@H]3CCCN3C)nc3c2CCN(c2cccc(F)c2OC)C3)CC1CC#N", "note": "(stereo partly drawn) [Example 308, 2-(1-acryloyl-4-(7-(3-fluoro-2-methoxyphenyl)-2-(((S)-1-methylpyrrolidin-2-yl)methoxy)-5,6,7,8-tetrahydropyrido[3,4-d]pyrimidin-4-yl)piperazin-2-yl)acetonitrile]", "IC50": "0.1 to 1000"},
      {"smiles": "C=CC(=O)N1CCN(c2nc(OC[C@@H]3CCCN3C)nc3c2CCN(c2cccc4cccc(C)c24)C3)CC1CC#N", "note": "(stereo partly drawn) [Example 309, 2-(1-acryloyl-4-(7-(8-methylnaphthalen-1-yl)-2-(((S)-1-methylpyrrolidin-2-yl)methoxy)-5,6,7,8-tetrahydropyrido[3,4-d]pyrimidin-4-yl)piperazin-2-yl)acetonitrile]", "IC50": "0.1 to 1000"},
      {"smiles": "C=CC(=O)N1CCN(c2nc(OC[C@@H]3CCCN3C)nc3c2CCN(c2c(F)ccc4ccccc24)C3)CC1CC#N", "note": "(stereo partly drawn) [Example 311, 2-(1-acryloyl-4-(7-(2-fluoronaphthalen-1-yl)-2-(((S)-1-methylpyrrolidin-2-yl)methoxy)-5,6,7,8-tetrahydropyrido[3,4-d]pyrimidin-4-yl)piperazin-2-yl)acetonitrile]", "IC50": "0.1 to 1000"},
      {"smiles": "C=CC(=O)N1CCN(c2nc(OC[C@@H]3C[C@@H](O)CN3C)nc3c2CCN(c2ccccc2C(F)(F)F)C3)CC1CC#N", "note": "(stereo partly drawn) [Example 312, 2-[4-[2-[[(2S,4R)-4-hydroxy-1-methyl-pyrrolidin-2-yl]methoxy]-7-[2-(trifluoromethyl)phenyl]-6,8-dihydro-5H-pyrido[3,4-d]pyrimidin-4-yl]-1-prop-2-enoyl-piperazin-2-yl]acetonitrile]", "IC50": "0.1 to 1000"},
      {"smiles": "C=CC(=O)N1CCN(c2nc(OC[C@@H]3CCN(C)C3)nc3c2CCN(c2c(C(F)(F)F)ccc4[nH]ncc24)C3)CC1CC#N", "note": "(stereo partly drawn) [Example 313, 2-[4-[2-[[(3R)-1-methylpyrrolidin-3-yl]methoxy]-7-[5-(trifluoromethyl)-1H-indazol-4-yl]-6,8-dihydro-5H-pyrido[3,4-d]pyrimidin-4-yl]-1-prop-2-enoyl-piperazin-2-yl]acetonitrile]", "IC50": "0.1 to 1000"},
      {"smiles": "C=CC(=O)N1CCN(c2nc(OC[C@@H]3CCCN3C)nc3c2CCN(c2cc(OC)cc4ccccc24)C3)C[C@@H]1CC#N", "note": "[Example 314, 2-[(2S)-4-[7-(3-methoxy-1-naphthyl)-2-[[(2S)-1-methylpyrrolidin-2-yl]methoxy]-6,8-dihydro-5H-pyrido[3,4-d]pyrimidin-4-yl]-1-prop-2-enoyl-piperazin-2-yl]acetonitrile]", "IC50": "0.1 to 1000"},
      {"smiles": "C=CC(=O)N1CCN(c2nc(OC[C@@H]3C[C@@H](O)CN3C)nc3c2CCN(c2cccc4ccccc24)C3)C[C@@H]1CC#N", "note": "[Example 315, 2-[(2S)-4-[2-[[(2S,4R)-4-hydroxy-1-methyl-pyrrolidin-2-yl]methoxy]-7-(1-naphthyl)-6,8-dihydro-5H-pyrido[3,4-d]pyrimidin-4-yl]-1-prop-2-enoyl-piperazin-2-yl]acetonitrile]", "IC50": "0.1 to 1000"}
    ]}
  ]
}
